The record followed here is patent US11690810B2, “Combination treatment of bacterial infection” (The Chinese University of Hong Kong, priority 2018, dated 2023).

In test [1] the test system is S. aureus SA-RN4220-pUL5054 (RN4220). The test is described as follows: MIC and checkerboard (FIC) assay. The settings on record: Staphylococcus aureus.
In test [2] the test system is S. aureus SA-APH2″-AAC6′ (APH2), resistant to gentamicin. Nature of the test: MIC and checkerboard (FIC) assay.
Test [3] concerns S. aureus SA-ANT4′ (ANT4), resistant to fusidic acid. The test is described as follows: MIC and checkerboard (FIC) assay.
Another test relates to CA-MRSA strain ST30. The test is described as follows: MIC and checkerboard (FIC) assay. The format is cell-based, Staphylococcus aureus. The settings on record: Staphylococcus aureus, MRSA.
The next test has as its system MRSA SA-ST239. The test is described as follows: MIC and checkerboard (FIC) assay. The settings on record: for FIC / MIC combine: ST239.
For test [4], the system named is S. aureus SA-1199B (NorA efflux pump overexpressed). The test is described as follows: MIC and checkerboard (FIC) assay. Particulars: Staphylococcus aureus; for MIC: read-out: Minimum inhibitory concentration to compound (MIC), 1199B′, Table 8.
Test [5] relates to S. aureus SA-APH3′ (APH3), resistant to kanamycin. Nature of the test: MIC and checkerboard (FIC) assay. Particulars: Staphylococcus aureus; for MIC: read-out: Minimum inhibitory concentration to compound (MIC).
In test [6] the test system is clinical fusidic acid resistant MRSA strain 82356. Nature of the test: MIC and checkerboard (FIC) assay. It counts as cell-based, Staphylococcus aureus.
The test system of test [7] is clinical fusidic acid resistant MRSA strain 96591. Nature of the test: MIC and checkerboard (FIC) assay. It counts as cell-based, Staphylococcus aureus.
Test [8] relates to clinical fusidic acid resistant MRSA strain 73621. The test is described as follows: MIC and checkerboard (FIC) assay. The format is cell-based, Staphylococcus aureus.
The subject of test [9] is S. aureus ATCC25923 (methicillin sensitive). The test is described as follows: MIC and checkerboard (FIC) assay. The settings on record: Staphylococcus aureus.
Test [10] deals with panel of laboratory MRSA strains. Nature of the test: MIC and combination tests, panel of laboratory strains. Particulars: tanshinone highest tested concentration 128 μg/ml.
Another test deals with HA MRSA W233. Nature of the test: MIC and checkerboard (FIC) assay.
The next test has as its system HA MRSA W231. The test is described as follows: MIC and checkerboard (FIC) assay.
The next test has as its system HA MRSA W238. The test is described as follows: MIC and checkerboard (FIC) assay.
The mark [11] stands for this setting: read-out: Minimum inhibitory concentration to compound (MIC).
Setting [12] is: Staphylococcus aureus, read-out: MIC alone.
Where [13] appears, read: Staphylococcus aureus, read-out: Minimum inhibitory concentration to compound (MIC).
[14] abbreviates: ST30, Table 8, read-out: Minimum inhibitory concentration to compound (MIC).
Where [15] appears, read: ST30, read-out: Activity (MIC, μg/ml).
Setting [16] is: Staphylococcus aureus, MRSA, read-out: Activity (MIC, μg/ml).
Where [17] appears, read: Staphylococcus aureus, MRSA, read-out: MIC alone.
The mark [18] stands for this setting: read-out: Activity (MIC, μg/ml).
[19] abbreviates: Staphylococcus aureus, read-out: MIC 99.9.
Setting [20] is: APH2″-AAC6′, ECG with WQD-169 (Kuraridin).

Where two headings read alike, the source gives them in different places.

In the case of `C=C(C)C(CC=C(C)C)Cc1c(O)cc(OC)c(C(=O)/C=C/c2ccc(O)cc2OC)c1O` (racemic) [WQD-164, (E)-1-(2,4-dihydroxy-6-methoxy-3-(5-methyl-2-(prop-1-en-2-yl)hex-4-en-1-yl)phenyl)-3-(4-hydroxy-2-methoxyphenyl)prop-2-en-1-one], the MIC came to 64 µg/mL in test [1] (setting [11]); 16 µg/mL in test [2] (setting [12]); 16 µg/mL in test [2] (setting [13]); 32 µg/mL in test [3] (setting [13]); 128 µg/mL in the test with CA-MRSA strain ST30 (setting [14]); 128 µg/mL in the test with CA-MRSA strain ST30 (setting [15]). Further, the MIC was 32 µg/mL in the test with MRSA SA-ST239 (setting [16]), 32 µg/mL in the test with MRSA SA-ST239 (setting [17]), 64 µg/mL in [4] and 32 µg/mL in test [5]. The FIC in [2] (APH2″-AAC6′, ECG with WQD-164) turned out to be 0.50; in the test with MRSA SA-ST239 (ECG with WQD-164), 0.50. The MIC combine in test [2] (APH2″-AAC6′, ECG with WQD-164) was 8 µg/mL; with MRSA SA-ST239 (ECG with WQD-164), 4 µg/mL.

Turning to `C=C(C)C(CC=C(C)C)Cc1c(OC)cc(OC)c(C(=O)/C=C/c2ccc(OCOC)cc2OCOC)c1OC` (stereo not drawn) [Compound A], in test [1] (setting [18]), the MIC was over 256 µg/mL.

`C=C(C)C(CC=C(C)C)Cc1c(OC)cc(OC)c(C(=O)/C=C/c2ccc(O)cc2O)c1OC` (stereo not drawn) [Compound B]: the MIC in test [1] (setting [18]) turned out to be 64 µg/mL.

Consider `CC(=O)O[C@H]1C[C@@]2(C)[C@@H](C[C@@H](O)[C@H]3[C@@]4(C)CC[C@@H](O)[C@@H](C)[C@@H]4CC[C@@]32C)/C1=C(\CCC=C(C)C)C(=O)O` [Fusidic acid, fusidic acid, reference compound], for which the FIC in test [6] (82356, ECG+Kur+Fus) is given as 0.03; in test [7] (96591, ECG+Kur+Fus), 0.03; in test [3] (ANT4, ECG+Kur+Fus), 0.125; in test [8] (73621, ECG+Kur+Fus), 0.03. In addition, the MIC combine in test [6] (82356, ECG+Kur+Fus) turned out to be 1 µg/mL; in [7] (96591, ECG+Kur+Fus), 1 µg/mL; in test [3] (ANT4, ECG+Kur+Fus) it was 4 µg/mL; in test [3] (ANT4, ECG+Kur+Fus, listed as Fus), 8 µg/mL; in test [8] (73621, ECG+Kur+Fus) it was 1 µg/mL. Moreover, the MIC in test [6] (Staphylococcus aureus, MRSA, 82356 (fusidic acid resistant), read-out: MIC alone) stood at 32 µg/mL; in test [7] (Staphylococcus aureus, MRSA, 96591 (fusidic acid resistant), read-out: MIC alone), 32 µg/mL; in [3] (setting [12]), 64 µg/mL; in test [8] (Staphylococcus aureus, MRSA, 73621 (fusidic acid resistant), read-out: MIC alone), 32 µg/mL.

The MIC90 is the lowest concentration that inhibits either 90% of growth or 90% of the strains tested, depending on the study. For the compound `O=C(O)c1cc(O)c(O)c(O)c1` [Gallic acid, 3,4,5-trihydroxybenzoic acid], the MIC90 in test [1] is 512 µg/mL; in test [2] (Staphylococcus aureus), 512 µg/mL; in test [9] (ATCC25923), 256 µg/mL; in test [3] (Staphylococcus aureus), 512 µg/mL; in the test on MRSA SA-ST239 (Staphylococcus aureus, MRSA), 256 µg/mL; in test [4], 512 µg/mL. Besides, in [5], the MIC90 was 512 µg/mL. In addition, the MIC99 in [1] (read-out: MIC 99.9) was over 512 µg/mL; in [2] (setting [19]), over 512 µg/mL; in test [9] (ATCC25923, read-out: MIC 99.9) it was over 512 µg/mL; in test [3] (setting [19]) it was over 512 µg/mL; in the test with MRSA SA-ST239 (Staphylococcus aureus, MRSA, read-out: MIC 99.9), over 512 µg/mL; in [4] (read-out: MIC 99.9), over 512 µg/mL. Besides, the MIC99 in test [5] (read-out: MIC 99.9) is over 512 µg/mL. The “activity against the tested MRSA strains when used alone” value in test [10] is on record as “relatively weak”.

As for `C=C(C)C(CC=C(C)C)Cc1c(OC)cc(OC)c(C(=O)/C=C/c2ccc(OCc3ccccc3)cc2OCc2ccccc2)c1OC` (stereo not drawn) [WQD-8], the MIC (in [1] (setting [18]); in the test on CA-MRSA strain ST30 (setting [18]); in the test on MRSA SA-ST239 (setting [16])) was over 256 µg/mL in each case.

On to `C=C(C)C(CC=C(C)C)Cc1c(OC)cc(OC)c(C(=O)/C=C/c2ccccc2O)c1OC` (stereo not drawn) [WQD-98], for which the MIC (in [1] (setting [18]); in the test on CA-MRSA strain ST30 (setting [18]); in the test on MRSA SA-ST239 (setting [16])) was over 256 µg/mL in each case.

On to `C=C(C)C(CC=C(C)C)Cc1c(OC)cc(OC)c(C(=O)/C=C/c2ccc(O)cc2)c1OC` (stereo not drawn) [WQD-101], for which the MIC (in test [1] (setting [18]); in the test with CA-MRSA strain ST30 (setting [18]); with MRSA SA-ST239 (setting [16])) was over 256 µg/mL in each case.

In the case of `C=C(C)C(CC=C(C)C)Cc1c(O)cc(OC)c(C(=O)/C=C/c2ccccc2O)c1O` (stereo not drawn) [WQD-165], the MIC turned out to be 8 µg/mL in [1] (setting [11]); 4 µg/mL in test [2] (setting [12]); 4 µg/mL in test [2] (setting [13]); 8 µg/mL in test [3] (setting [13]); 32 µg/mL in the test with CA-MRSA strain ST30 (setting [14]); 32 µg/mL with CA-MRSA strain ST30 (setting [15]). Further, the MIC in the test with MRSA SA-ST239 (setting [16]) came to 4 µg/mL; with MRSA SA-ST239 (setting [17]), 4 µg/mL; in test [4] it was 8 µg/mL; in test [5], 4 µg/mL. Besides, the FIC in test [2] (APH2″-AAC6′, ECG with WQD-165) is given as 1; in the test on MRSA SA-ST239 (ECG with WQD-165), 1. Further, the MIC combine in test [2] (APH2″-AAC6′, ECG with WQD-165) came out at 4 µg/mL; in the test with MRSA SA-ST239 (ECG with WQD-165) it was 4 µg/mL.

`C=C(C)C(CC=C(C)C)Cc1c(O)cc(OC)c(C(=O)/C=C/c2ccc(O)cc2O)c1O` (stereo not drawn) [WQD-169, (E)-1-(2,4-dihydroxy-6-methoxy-3-(5-methyl-2-(prop-1-en-2-yl)hex-4-en-1-yl)phenyl)-3-(2,4-dihydroxyphenyl)prop-2-en-1-one]: the MIC (in [1] (setting [11]); in test [2] (setting [13]); in test [3] (setting [13]); in the test on CA-MRSA strain ST30 (setting [14]); in the test on CA-MRSA strain ST30 (setting [15]); with MRSA SA-ST239 (setting [16])) was 8 µg/mL each time. Also, the MIC (in the test with MRSA SA-ST239 (setting [17]); in [4]; in test [5]) was 8 µg/mL in each case. Further, the figures for the FIC (in test [2] (setting [20]); in the test on MRSA SA-ST239 (ECG with WQD-169 (Kuraridin))) were 0.25 and 0.5, respectively. Also, the results for the MIC combine (in test [2] (setting [20]); in the test on MRSA SA-ST239 (ECG with WQD-169 (Kuraridin))) were 2 µg/mL and 4 µg/mL, respectively. Moreover, the MIC alone in test [2] (Strain APH2″-AAC6′, Table 9) came out at 8 µg/mL.

In the case of `C=C(C)C(CC=C(C)C)Cc1c(O)cc(OC)c(C(=O)/C=C/c2ccc(O)cc2)c1O` (stereo not drawn) [WQD-175], the MIC was 8 µg/mL in test [1] (setting [11]); 4 µg/mL in test [2] (setting [12]); 4 µg/mL in [2] (setting [13]); 8 µg/mL in test [3] (setting [13]); 16 µg/mL in the test on CA-MRSA strain ST30 (setting [14]); 16 µg/mL with CA-MRSA strain ST30 (setting [15]). In addition, the MIC in the test on MRSA SA-ST239 (setting [16]) was 4 µg/mL; in the test with MRSA SA-ST239 (setting [17]) it was 4 µg/mL; in test [4], 8 µg/mL; in [5], 4 µg/mL. The FIC came to 1 in test [2] (APH2″-AAC6′, ECG with WQD-175) and 1 in the test with MRSA SA-ST239 (ECG with WQD-175). The MIC combine in [2] (APH2″-AAC6′, ECG with WQD-175) is 4 µg/mL; in the test on MRSA SA-ST239 (ECG with WQD-175), 4 µg/mL.

gentamicin [reference compound]: the MIC alone in test [2] (APH2 (gentamicin resistant)) is over 512 µg/mL; in [2] (APH2 (gentamicin resistant), listed as Gen) it was 512 µg/mL; in the test with HA MRSA W233 (W233 (gentamicin resistant)) it was 512 µg/mL; with HA MRSA W231 (W231 (gentamicin resistant)), 64 µg/mL; with HA MRSA W238 (W238 (gentamicin resistant)) it was 512 µg/mL. In addition, the FIC is reported as 0.0312 in [2] (APH2, ECG+Kur+Gen); 0.03 in the test with HA MRSA W233 (W233, ECG+Kur+Gen); 0.015 in the test on HA MRSA W231 (W231, ECG+Kur+Gen); 0.03 with HA MRSA W238 (W238, ECG+Kur+Gen). Besides, the MIC combine in [2] (APH2, ECG+Kur+Gen) was 16 µg/mL; in the test with HA MRSA W233 (W233, ECG+Kur+Gen) it was 16 µg/mL; in the test with HA MRSA W231 (W231, ECG+Kur+Gen), 1 µg/mL; in the test with HA MRSA W238 (W238, ECG+Kur+Gen), 16 µg/mL.
